Experimental data as given in PMC12022903, “Evaluation of drug-drug interaction between Suraxavir Marboxil (GP681) and itraconazole, and assessment of the impact of gene polymorphism” (Frontiers in Pharmacology, 2025).
Several values for one entry are separate records, joined by “and”; a condition that tells them apart may be missing. Identical values can stand only once.

Assay: Pharmacokinetic parameters of GP1707D07 (HPLC-MS/MS, non-compartmental) in the GP681-itraconazole drug-drug interaction study
Type: in vivo, healthy Chinese subjects
Description: This single-center, open-label, self-controlled, fixed-sequence study, sponsored by Qingfeng Pharmaceutical Group Co., Ltd., was conducted at a single clinical research site in the China–Japan Friendship Hospital (Beijing, China). Each subject received the following treatment: Suraxavir Marboxil (GP681) 20 mg in the fasted state on day 1 and day 26. Itraconazole capsules (Sporanox®: Xi’an Yangsen Pharmaceutical Co., Ltd., China) 0.2 g twice daily (BID, bis in die) on day 22. Itraconazole 0.2 g daily from day 23 to day 36 [including day 26, when itraconazole was co-administrated with Suraxavir Marboxil (GP681)]. The washout period is 21 days (Figure 2). It should be noted that in the following sections, when discussing the PK profile, this study was divided into Period 1 (Suraxavir Marboxil (GP681) monotherapy, from day −1 to day 12), and Period 2 (Suraxavir Marboxil (GP681)-itraconazole co-administration, from day 21 to day 36). When discussion the safety profile, this study was divided into Stage 1 (Suraxavir Marboxil (GP681) monotherapy stage, from day 1 to day 21), Stage 2 (itraconazole monotherapy stage, from day 22 to day 25), and Stage 3 (Suraxavir Marboxil (GP681)-itraconazole co-administration stage, from d 26 to d 36).
Blood samples were collected at the following time points: pre–dose, 0.5, 1, 2, 3, 4, 5, 6, 8, 12, 24, 36, 48, 72, 120, 168, and 264 h post-dose on day 1 and day 26. In addition, a blood sample were collected before dosing on day 1 for genetic polymorphism assessment.
A validated high-performance liquid chromatography-tandem mass spectrometry (HPLC-MS/MS) method was used to determine plasma concentrations of Suraxavir Marboxil (GP681) and its active metabolite GP1707D07 at different times, with the quantification range of 0.3/0.3–300/300 ng/mL for Suraxavir Marboxil (GP681) and GP1707D07. The lower limit of quantification (LLOQ) for both compounds was 0.300 ng/mL. Phoenix® WinNonlin® 8.3 was used to estimate and analyze the pharmacokinetic parameters of non-compartmental model from plasma concentration data. Pharmacokinetic parameters included: maximum plasma concentration (Cmax), area under the plasma concentration-time curve extrapolated from time zero to infinity (AUC0- ∞ ), time to Cmax (Tmax), half-life (t1/2), λz, AUC_%Extrap, Vz/F, CL/F, and mean residence time (MRT).
Statistical analysis was performed using SAS (version 9.4 or above) software programming. Pharmacokinetic concentration analysis was based on Pharmacokinetic Analysis Concentration Set (PKCS). Individual and mean concentrations (mean ± SD) were plotted against planned blood sampling time points for the analyte on linear and semi-log scales. Pharmacokinetic parameter analysis was based on Pharmacokinetic Analysis Parameter Set (PKPS). Drug interaction analysis was based on Drug Interaction Set (DIS). The geometric mean ratios and their 90% confidence intervals of pharmacokinetic parameters Cmax, AUC0-t, and AUC0- ∞ under Suraxavir Marboxil (GP681) single dose and Suraxavir Marboxil (GP681)-itraconazole co-administration conditions were calculated after natural logarithm transformation, using a linear mixed effects model with subjects as random effects and treatment (combined/single) as fixed effects.
1.3 Pharmacokinetic Sample Collection and Processing: Pharmacokinetic Analysis: Approximately 4 mL of blood is collected each time into a tube containing sodium fluoride/potassium oxalate as an anticoagulant. The tube is then placed upright in an ice-water bath. The plasma samples are separated by centrifugation for the detection of GP681/GP1707D07 blood drug concentrations. Both sample collection and processing are conducted under white light conditions. […]

[1] = GP681 + itraconazole vs GP681 alone, N=12
[2] = Period 1, GP681 20 mg monotherapy, geometric mean, N=12
[3] = Period 1, GP681 20 mg monotherapy, individual subjects
[4] = Period 1, GP681 20 mg monotherapy, mean, N=12
[5] = Period 1, GP681 20 mg monotherapy, median, N=12
[6] = Period 2, GP681 20 mg + itraconazole, geometric mean, N=12

For `O=C1c2c(O)c(=O)ccn2N([C@@H]2c3ccccc3SCc3c2ccc(F)c3F)[C@@H]2COC3(CC3)CN12` [GP1707D07], the “AUC0-t: point estimate of geometric mean ratio (90% CI) Period 2/Period 1” value [1] was 215.2% and 215.2 (170.7, 271.3) %, the “AUC0-∞: point estimate of geometric mean ratio (90% CI) Period 2/Period 1” value [1] was 255.4% and 255.4 (204.5, 319.0) % and the “Cmax: point estimate of geometric mean ratio (90% CI) Period 2/Period 1” value [1] was 137.7% and 137.7 (98.5, 192.3) %. It also gave an AUC0-t [2] of 955.800 ng·h/mL, an AUC_%Extrap [2] of 7.117% and a CL/F [2] of 19.255 L/h. For the same compound, the Cmax [2] was 16.0 ng/mL and 16.0070 ng/mL, the MRT0-t [2] was 66.790 h and the “MRT0-∞” value [2] was 87.2 h and 87.218 h. The Tmax [2] was 3.7 h, the Vz/F [2] was 1799.125 L and the t1/2 [2] was 64.8 h and 64.764 h. For the same compound, the λz [2] was 0.0107 h⁻¹, the AUC0-t [3] was 1770.18 ng·h/mL and 1069.77 ng·h/mL and 1199.27 ng·h/mL and 602.25 ng·h/mL and 1158.79 ng·h/mL and 728.18 ng·h/mL and 1487.97 ng·h/mL and 759.35 ng·h/mL and 1247.30 ng·h/mL and 1364.54 ng·h/mL and 354.04 ng·h/mL and 739.81 ng·h/mL and 1069.8 ng·h/mL and 1199.3 ng·h/mL and 602.3 ng·h/mL and 1158.8 ng·h/mL and 728.2 ng·h/mL and 1488.0 ng·h/mL and 759.4 ng·h/mL and 1364.5 ng·h/mL and 354.0 ng·h/mL and 739.8 ng·h/mL and 1770.2 ng·h/mL and the “AUC0-∞” value [3] was 1874.52 ng·h/mL and 1171.14 ng·h/mL and 1273.75 ng·h/mL and 689.41 ng·h/mL and 1290.37 ng·h/mL and 801.51 ng·h/mL and 1650.91 ng·h/mL and 781.02 ng·h/mL and 1310.49 ng·h/mL and 1409.63 ng·h/mL and 407.77 ng·h/mL and 814.16 ng·h/mL. The AUC_%Extrap [3] was 5.57% and 8.66% and 5.85% and 12.64% and 10.20% and 9.15% and 9.87% and 2.78% and 4.82% and 3.20% and 13.18% and 9.13%, the CL/F [3] was 10.67 L/h and 17.08 L/h and 15.70 L/h and 29.01 L/h and 15.50 L/h and 24.95 L/h and 12.11 L/h and 25.61 L/h and 15.26 L/h and 14.19 L/h and 49.05 L/h and 24.57 L/h and the Cmax [3] was 44.439 ng/mL and 17.988 ng/mL and 26.933 ng/mL and 7.24 ng/mL and 15.539 ng/mL and 12.018 ng/mL and 25.999 ng/mL and 16.03 ng/mL and 20.468 ng/mL and 30.14 ng/mL and 3.382 ng/mL and 11.179 ng/mL and 18.0 ng/mL and 26.9 ng/mL and 7.2 ng/mL and 15.5 ng/mL and 12.0 ng/mL and 26.0 ng/mL and 16.0 ng/mL and 20.5 ng/mL and 30.1 ng/mL and 3.4 ng/mL and 11.2 ng/mL and 44.4 ng/mL. For the same compound, the MRT0-t [3] was 61.44 h and 71.79 h and 62.61 h and 74.73 h and 74.78 h and 69.62 h and 63.68 h and 57.28 h and 63.69 h and 56.39 h and 80.89 h and 69.22 h, the “MRT0-∞” value [3] was 75.90 h and 95.15 h and 78.26 h and 108.96 h and 102.37 h and 94.31 h and 93.23 h and 64.34 h and 75.97 h and 64.54 h and 117.49 h and 94.32 h and the Tmax [3] was 3 h and 6 h and 2 h and 5 h and 4 h. For the same compound, the Vz/F [3] was 857.04 L and 1725.92 L and 1402.22 L and 3031.63 L and 1619.87 L and 2462.69 L and 1483.10 L and 1801.98 L and 1183.17 L and 996.59 L and 5767.31 L and 2522.77 L, the t1/2 [3] was 55.68 h and 70.05 h and 61.90 h and 72.43 h and 72.44 h and 68.41 h and 84.86 h and 48.78 h and 53.74 h and 48.69 h and 81.51 h and 71.18 h and the λz [3] was 0.012 h⁻¹ and 0.010 h⁻¹ and 0.011 h⁻¹ and 0.008 h⁻¹ and 0.014 h⁻¹ and 0.013 h⁻¹ and 0.009 h⁻¹. The AUC_%Extrap [4] was 7.9 (3.4) % and 7.919%, the CL/F [4] was 21.1 (10.6) L/h and 21.141 L/h and the Cmax [4] was 19.3 (11.2) ng/mL and 19.2796 ng/mL. The MRT0-t [4] was 67.2 (7.5) h and 67.176 h, the “MRT0-∞” value [4] was 88.7 (17.0) h and 88.737 h and the Tmax [4] was 4.0 h. The Vz/F [4] was 2071.2 (1,333.0) L and 2071.190 L, the t1/2 [4] was 65.8 (12.1) h and 65.805 h and the λz [4] was 0.011 (0.0021) h-1 and 0.0109 h-1. The Tmax (Period 1, GP681 20 mg monotherapy, median (range), N=12) was 4.0 (2.0–6.0) h, the AUC0-t [5] was 1114.281 ng·h/mL and the “AUC0-∞” value [5] was 1222.445 ng·h/mL. The AUC_%Extrap [5] was 8.894%, the CL/F [5] was 16.390 L/h and the Cmax [5] was 17.0090 ng/mL. For the same compound, the MRT0-t [5] was 66.454 h, the “MRT0-∞” value [5] was 93.771 h and the Vz/F [5] was 1672.897 L. For the same compound, the t1/2 [5] was 69.231 h, the λz [5] was 0.0100 h⁻¹ and the AUC0-t [6] was 2057.0 ng·h/mL and 2057.031 ng·h/mL. For the same compound, the AUC_%Extrap [6] was 21.847% and the CL/F [6] was 7.539 L/h.
